Results reported in patent publication US11274095B2, “Modulators of methyl modifying enzymes, compositions and uses thereof” (Constellation Pharmaceuticals, Inc., priority 2018, dated 2022).

Columns and labels:
Karpas-422 cell lines = assay: Karpas-422 viability assay (Cell Titer-Glo, Day 8); assay type: cell-based; details: Cell Titer-Glo on Day 8
Experimental: Karpas-422 cell lines were obtained from DSMZ (Braunschweig, Germany) and were grown in RPMI-1640 media. All media contained 10% fetal bovine serum (FBS) and 1% penicillin/streptomycin (Invitrogen). 20K cells per well were plated onto 96 well compound coated plates. Cells were split and seeded at original plating density (based on the DMSO well counts) every 4 days into plates containing fresh EZH2 inhibitors. Relative cell numbers were assessed by Cell Titer-Glo luminescent cell viability assay (Promega) on Day 8. GraphPad Prism 5 was used for curve fitting and GI50 values were reported.

H3K27me3 in Hela cells = assay: H3K27me3 Alpha Hela Assay (AlphaLISA); assay type: cell-based
Experimental: H3K27me3 Alpha Hela Assay (AlphaLISA). Ten different doses of each test compound (in a series of 3-fold dilutions) were plated in duplicate 384-well tissue culture treated plates (Catalog #6007680; Perkin Elmer, Waltham, Mass.). Hela cells grown in culture were trypsinized and counted using a Countess® cell counter (Catalog #C10281; Life Technologies, Grand Island, N.Y.). Cell were diluted to 67,000 cells per mL in10% DMEM (Catalog #10569-010 Life Technologies, Grand Island, N.Y.) and 15 μL (1,000 cells) were plated into each well using the Biotek MicroFlo™ Select Dispenser (BioTek Instruments, Inc. Vermont, USA),) of the 384-well plate. Plates were incubated at 37° C./5% CO2 for 72 hrs. One of the duplicate plates was processed for HeLa assay and the other for viability. 5 μL of Cell-Histone Lysis buffer (1×) (Catalog #AL009F1 Perkin Elmer; Waltham, Mass.) per well was added to the plate processed for AlphaLISA and the plate was incubated at RT for 30 minutes on a plate shaker with low speed (Model# 4625-Q Thermo Scientific; Waltham, Mass.). Then, 10 μL per well Histone Extraction buffer (catalog #AL009F2; Perkin Elmer; Waltham, Mass.) was added and the plate further incubated at RT for 20 min on plate shaker with low speed. Next, 10 μL of 5× mix of anti-K27me3 acceptor beads plus Biotinylated anti-Histone H3 (C-ter) Antibody (diluted to 3 nM final) (Catalog #AL118 Perkin Elmer; Waltham, Mass.) was added in each well. Dilution of the acceptor beads and anti-Histone H3 was done in 1× Histone Detection buffer (Catalog #AL009F3 Perkin Elmer; Waltham, Mass.) which was produced by diluting the 10× stock provided. The plate was sealed with an aluminum plate sealer and incubated at 23° C. for 60 min. Next, 10 μL 5× solution of Streptavidin Donor beads were added (Catalog #6760002 Perkin Elmer; Waltham, Mass.) (20 μg/mL final in 1× Histone Detection Buffer), =plate was sealed with Aluminum plate sealer and incubated at 23° C. for 30 min. The plates were then read using an EnVision-Alpha Reader (model #2104 Perkin Elmer; Waltham, Mass.). […]

PRC2 containing wt EZH2 = PRC2 containing wt EZH2 (Homo sapiens (Human), UniProt Q15910); assay: EZH2 biochemical assay (IC50), 3H-SAM incorporation into biotinylated H3 peptide; details: 30 pM PRC2 with wt EZH2, 3-5 h pre-incubation
Experimental: EZH2 biochemical assay (IC50): Compound potencies were assessed through incorporation of ^3H-SAM into a biotinylated H3 peptide. Specifically, 30 pM PRC2 containing wt EZH2 (pentameric complex prepared in-house) was pre-incubated with 450 nM SAM, 450 nM ^3H-SAM, 2 μM H3K27me3 activating peptide (H2N-RKQLATKAAR(Kme3)SAPATGGVKKP-amide) and compounds (as 10 point duplicate dose response titrations in DMSO, final assay 0.8% DMSO (v/v)) for 3-5 h in 50 mM Tris (pH 8.5), 1 mM DTT, 0.07 mM Brij-35, 0.1% BSA, and 0.8% DMSO in a total volume of 12.5 μl. Reaction was initiated with biotinylated H3 substrate peptide (H2N-RKQLATKAAR(Kmel)SAPATGGVKKP-NTPEGBiot) as a 2 μM stock in 12.5 μl of buffer and allowed to react at room temperature for 18-22 h. Quenching was accomplished by addition of 20 μl of STOP solution (50 mM Tris (pH 8.5), 200 mM EDTA, 2 mM SAH). 35 μl of the quenched solution was transferred to streptavidin coated FlashPlates (PerkinElmer), incubated 1-2 h, washed, and read in a TopCount Reader (PerkinElmer). IC50s were calculated in Genedata Screener using non-linear least square four parameter fits, where the four parameters were IC50, Hill slope, pre-transitional baseline (0% INH), and post-transitional baseline (100% INH).

[1] = Cellular permeability in MDCK assay; assay type: in vitro ADME; details: dog, pH 7.4, MDCK II, with P-gp inhibitor GF120918 10 μM; for efflux ratio at 2.5 h, 2 μM: Papp(BA)/Papp(AB)
Experimental: Cell culture: MDCK II cells (obtained from Piet Borst at the Netherlands Cancer Institute) were seeded onto […] (PET) in 96-well BD insert systems at 2.5×10^5 cells/mL until to 4-7 days for confluent cell monolayer formation.
Experimental procedure: Test and reference compounds (nadolol, metoprolol and digoxin) were diluted with transport buffer (HBSS with 10mM Hepes, pH7.4) from stock solution to a concentration of 2 μM (<1% DMSO) and applied to the apical (A) or basolateral (B) side of the cell monolayer. Permeation of the test compounds from A to B direction or B to A direction was determined in duplicate with P-gp inhibitor (GF120918, 10 μM). Digoxin was tested at 10 μM from A to B direction or B to A direction with/without P-gp inhibitor (GF120918, 10 μM) as well, while nadolol and metoprolol were tested at 2 μM in A to B direction without P-gp inhibitor (GF120918, 10 μM) in duplicate. The plate was incubated for 2.5 hours in CO2 incubator at 37±1° C., with 5% CO2 at saturated humidity without shaking. In addition, the efflux ratio of each compound was also determined. Test and reference compounds were quantified by LC/MS/MS analysis based on the peak area ratio of analyte/IS. After transport assay, Lucifer yellow rejection assay are applied to determine the cell monolayer integrity. Buffers are removed from both apical and basolateral chambers, followed by the addition of 75 μL of 100 μM lucifer yellow in transport buffer and 250 μL transport buffer in apical and basolateral chambers, respectively. The plate is incubated for 30 minutes at 37° C. with 5% CO2 and 95% relative humidity without shaking. After 30 minutes incubation, 20 μL of lucifer yellow samples are taken from the apical sides, followed by the addition of 60 μL of Transport Buffer. And then 80 μL of lucifer yellow samples are taken from the basolateral sides. The relative fluorescence unit (RFU) of lucifer yellow is measured at 425/528 nm (excitation/emission) with a Molecular Device M2e plate reader.
Data analysis: The apparent permeability coefficient Papp (cm/s) was calculated using the equation: Papp=(dCr/dt)×Vr/(A×C0) Where dCr/dt is the cumulative concentration of compound in the receiver chamber as a function of time (μM/s); Vr is the solution volume in the receiver chamber (0.075 mL on the apical side, 0.25 mL on the basolateral side); A is the surface area for the transport, i.e. 0.0804 cm2 for the area of the monolayer; C0 is the initial concentration in the donor chamber (μM).
The efflux ratio was calculated using the equation: Efflux Ratio=Papp(BA)/Papp(AB) Percent recovery was calculated using the equation: % Recovery=100×[(Vr×Cr)+(Vd×Cd)]/(Vd×C0) Where Vd is the volume in the donor chambers (0.075 mL on the apical side, 0.25 mL on the basolateral side); Cd and Cr are the final concentrations of transport compound in donor and receiver chambers, respectively.
Percent of lucifer yellow in basolateral well is calculated using the equation:
[formula] where RFUApical and RFUBasolateral are the relative fluorescence unit values of lucifer yellow in the apical and basolateral wells, respectively; VApical and VBasolateral are the volume of apical and basolateral wells (0.075 mL and 0.25 mL), respectively. Percent lucifer yellow should be less than 2.

[2] = Homo sapiens, KARPAS-422, 192 h

Sequence of PRC2 containing wt EZH2 (Q15910 whole entry): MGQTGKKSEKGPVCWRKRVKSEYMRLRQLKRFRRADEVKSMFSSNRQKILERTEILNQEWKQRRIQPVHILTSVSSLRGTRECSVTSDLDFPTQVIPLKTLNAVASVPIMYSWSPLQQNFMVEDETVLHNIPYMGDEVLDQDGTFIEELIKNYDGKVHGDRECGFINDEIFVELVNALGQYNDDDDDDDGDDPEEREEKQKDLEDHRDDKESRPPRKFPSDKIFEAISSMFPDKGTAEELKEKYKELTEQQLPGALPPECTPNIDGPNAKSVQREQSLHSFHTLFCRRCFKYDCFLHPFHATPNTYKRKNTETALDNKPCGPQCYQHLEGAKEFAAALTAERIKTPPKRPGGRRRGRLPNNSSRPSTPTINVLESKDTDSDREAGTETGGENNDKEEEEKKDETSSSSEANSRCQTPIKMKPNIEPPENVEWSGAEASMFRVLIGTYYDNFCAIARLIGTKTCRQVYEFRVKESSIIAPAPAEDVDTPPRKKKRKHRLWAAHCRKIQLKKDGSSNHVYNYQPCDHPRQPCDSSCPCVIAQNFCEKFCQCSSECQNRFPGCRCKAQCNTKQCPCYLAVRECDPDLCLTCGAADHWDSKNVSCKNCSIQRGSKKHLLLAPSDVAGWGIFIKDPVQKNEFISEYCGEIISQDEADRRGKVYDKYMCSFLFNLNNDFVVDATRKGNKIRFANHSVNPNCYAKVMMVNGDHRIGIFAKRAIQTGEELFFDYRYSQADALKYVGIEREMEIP
Sequence of PRC2 containing wt EZH2 (O75530 whole entry partner): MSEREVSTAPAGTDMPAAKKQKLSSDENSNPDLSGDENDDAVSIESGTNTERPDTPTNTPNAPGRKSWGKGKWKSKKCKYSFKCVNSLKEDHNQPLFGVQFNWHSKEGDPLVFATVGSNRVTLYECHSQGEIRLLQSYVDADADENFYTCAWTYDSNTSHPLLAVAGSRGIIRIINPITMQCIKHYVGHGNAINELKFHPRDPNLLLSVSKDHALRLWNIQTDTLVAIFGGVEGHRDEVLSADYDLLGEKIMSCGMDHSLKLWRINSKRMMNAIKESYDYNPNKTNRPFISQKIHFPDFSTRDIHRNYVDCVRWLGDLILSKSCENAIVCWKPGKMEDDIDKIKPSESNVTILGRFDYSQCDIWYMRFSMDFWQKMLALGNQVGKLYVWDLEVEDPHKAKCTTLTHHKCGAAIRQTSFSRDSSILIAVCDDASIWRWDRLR
Sequence of PRC2 containing wt EZH2 (Q15022 whole entry partner): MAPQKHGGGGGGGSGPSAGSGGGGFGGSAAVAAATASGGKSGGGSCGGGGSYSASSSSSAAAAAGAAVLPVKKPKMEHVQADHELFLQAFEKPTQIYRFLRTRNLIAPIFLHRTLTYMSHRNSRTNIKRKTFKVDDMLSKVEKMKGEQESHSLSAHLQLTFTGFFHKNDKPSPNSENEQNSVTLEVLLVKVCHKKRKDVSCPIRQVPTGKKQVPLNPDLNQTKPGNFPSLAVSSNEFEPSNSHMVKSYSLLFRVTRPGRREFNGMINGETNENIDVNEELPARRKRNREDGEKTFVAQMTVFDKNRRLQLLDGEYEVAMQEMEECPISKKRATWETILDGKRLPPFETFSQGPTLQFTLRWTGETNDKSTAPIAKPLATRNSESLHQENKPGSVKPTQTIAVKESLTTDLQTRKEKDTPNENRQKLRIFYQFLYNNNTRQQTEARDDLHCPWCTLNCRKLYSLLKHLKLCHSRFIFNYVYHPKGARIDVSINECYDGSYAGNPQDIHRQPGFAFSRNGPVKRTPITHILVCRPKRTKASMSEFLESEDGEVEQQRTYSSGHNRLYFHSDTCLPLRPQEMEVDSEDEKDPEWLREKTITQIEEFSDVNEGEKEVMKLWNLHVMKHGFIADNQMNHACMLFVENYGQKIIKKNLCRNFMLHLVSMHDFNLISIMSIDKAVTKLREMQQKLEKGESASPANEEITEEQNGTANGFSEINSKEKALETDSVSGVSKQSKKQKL
Sequence of PRC2 containing wt EZH2 (Q09028 whole entry partner): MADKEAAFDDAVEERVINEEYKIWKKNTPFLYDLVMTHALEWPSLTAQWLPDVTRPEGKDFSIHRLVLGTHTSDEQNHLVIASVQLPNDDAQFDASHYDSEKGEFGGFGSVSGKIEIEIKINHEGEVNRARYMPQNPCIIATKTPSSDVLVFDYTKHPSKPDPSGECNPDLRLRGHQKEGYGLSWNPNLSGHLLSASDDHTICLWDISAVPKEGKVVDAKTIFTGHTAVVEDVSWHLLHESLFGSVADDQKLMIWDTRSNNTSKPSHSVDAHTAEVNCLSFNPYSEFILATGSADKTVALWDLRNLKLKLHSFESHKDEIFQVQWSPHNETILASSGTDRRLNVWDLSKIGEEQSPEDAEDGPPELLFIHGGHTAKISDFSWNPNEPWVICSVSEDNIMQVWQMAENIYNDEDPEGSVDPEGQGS
Sequence of PRC2 containing wt EZH2 (Q6ZN18 whole entry partner): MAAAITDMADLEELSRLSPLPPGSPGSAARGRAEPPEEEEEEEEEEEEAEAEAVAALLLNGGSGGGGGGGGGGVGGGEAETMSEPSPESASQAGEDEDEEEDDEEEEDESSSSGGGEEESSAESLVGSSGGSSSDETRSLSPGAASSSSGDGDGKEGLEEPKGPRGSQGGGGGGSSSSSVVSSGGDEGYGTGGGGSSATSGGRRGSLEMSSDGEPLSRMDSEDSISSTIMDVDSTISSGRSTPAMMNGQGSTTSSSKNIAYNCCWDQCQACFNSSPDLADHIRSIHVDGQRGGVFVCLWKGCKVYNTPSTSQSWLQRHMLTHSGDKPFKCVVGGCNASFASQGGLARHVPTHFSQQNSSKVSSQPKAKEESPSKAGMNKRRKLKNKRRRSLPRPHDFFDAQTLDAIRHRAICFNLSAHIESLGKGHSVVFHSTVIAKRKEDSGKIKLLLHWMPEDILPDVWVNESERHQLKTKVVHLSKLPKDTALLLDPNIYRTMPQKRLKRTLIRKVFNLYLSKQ

Row | SMILES | GI50 (Karpas-422 cell lines; [2]) | EC50 (H3K27me3 in Hela cells; Homo sapiens, HeLa, 72 h) | IC50 (PRC2 containing wt EZH2) | GI50 (Karpas-422 cell lines) | EC50 (H3K27me3 in Hela cells; 72 hrs) | Papp at 2.5 h, 2 μM [1] | efflux ratio at 2.5 h, 2 μM [1]
1 | CSc1cc(Cl)[nH]c(=O)c1CNC(=O)c1cc(Cl)c2c(c1C)OC(C)(C1CCC(N3CC(OC(F)F)C3)CC1)O2 (single isomer, unassigned) [Example 2] | 250 nM | 15 nM | 1.5 nM |  |  |  | 
2 | CSc1cc(C)[nH]c(=O)c1CNC(=O)c1cc(Cl)c2c(c1C)OC(C)(C1CCC(NC3(C(F)(F)F)COC3)CC1)O2 (single isomer, unassigned) [Example 6-Enantiomer 1, 7-chloro-2,4-dimethyl-N-((6-methyl-4-(methylthio)-2-oxo-1,2-dihydropyridin-3-yl)methyl)-2-(4-((3-(trifluoromethyl)oxetan-3-yl)amino)cyclohexyl)benzo[d][1,3]dioxole-5-carboxamide] |  |  | 1.8 nM | 720 nM | 39 nM |  | 
3 | CSc1cc(C)[nH]c(=O)c1CNC(=O)c1cc(Cl)c2c(c1C)OC(C)(C1CCC(NC3(C(F)(F)F)COC3)CC1)O2 (single isomer, unassigned) [Example 6-Enantiomer 2] |  |  | 0.14 nM | 53 nM | 4.2 nM |  | 
4 | CSc1cc(C)[nH]c(=O)c1CNC(=O)c1cc(Cl)c2c(c1C)OC(C)(C1CCC(N3CC(F)(F)C3)CC1)O2 (single isomer, unassigned) [Example 7-Enantiomer 1] |  |  | 8.6 nM |  |  |  | 
5 | CSc1cc(C)[nH]c(=O)c1CNC(=O)c1cc(Cl)c2c(c1C)OC(C)(C1CCC(NC3(CF)COC3)CC1)O2 (single isomer, unassigned) [Example 11 (geometric isomer 1)] | 8.6 nM | 1.3 nM | 0.14 nM |  |  | 5.3 ×10⁻⁶ cm/s | 1.3
6 | CSc1cc(C)[nH]c(=O)c1CNC(=O)c1cc(Cl)c2c(c1C)OC(C)(C1CCC(NC3(CF)COC3)CC1)O2 (single isomer, unassigned) [Example 11 (geometric isomer 2)] |  |  | 0.18 nM |  | 1.7 nM |  | 
7 | CSc1cc(C)[nH]c(=O)c1CNC(=O)c1cc(Cl)c2c(c1C)OC(C)(C1CCN(CC(F)(F)F)CC1)O2 (single isomer, unassigned) [Example 14-Enantiomer 1, 7-chloro-2,4-dimethyl-N-((6-methyl-4-(methylthio)-2-oxo-1,2-dihydropyridin-3-yl)methyl)-2-(1-(2,2,2-trifluoroethyl)piperidin-4-yl)benzo[d][1,3]dioxole-5-carboxamide] |  |  | 0.037 nM |  | 1.4 nM |  | 
8 | CSc1cc(C)[nH]c(=O)c1CNC(=O)c1cc(Cl)c2c(c1C)OC(C)(C1CCN(CC(F)(F)F)CC1)O2 (single isomer, unassigned) [Example 14-Enantiomer 2, 7-chloro-2,4-dimethyl-N-((6-methyl-4-(methylthio)-2-oxo-1,2-dihydropyridin-3-yl)methyl)-2-(1-(2,2,2-trifluoroethyl)piperidin-4-yl)benzo[d][1,3]dioxole-5-carboxamide] |  |  | 7 nM |  | 210 nM | 13 ×10⁻⁶ cm/s | 0.56
9 | Cc1cc(Cl)c(CNC(=O)c2cc(Cl)c3c(c2C)OC(C)(C2CCN(CC(F)(F)F)CC2)O3)c(=O)[nH]1 (single isomer, unassigned) [Example 16-Enantiomer 1, 7-chloro-N-((4-chloro-6-methyl-2-oxo-1,2-dihydropyridin-3-yl)methyl)-2,4-dimethyl-2-(1-(2,2,2-trifluoroethyl)piperidin-4-yl)benzo[d][1,3]dioxole-5-carboxamide] |  |  | 0.31 nM |  | 22 nM |  | 
10 | Cc1cc(Cl)c(CNC(=O)c2cc(Cl)c3c(c2C)OC(C)(C2CCN(CC(F)(F)F)CC2)O3)c(=O)[nH]1 (single isomer, unassigned) [Example 16-Enantiomer 2, 7-chloro-N-((4-chloro-6-methyl-2-oxo-1,2-dihydropyridin-3-yl)methyl)-2,4-dimethyl-2-(1-(2,2,2-trifluoroethyl)piperidin-4-yl)benzo[d][1,3]dioxole-5-carboxamide] |  |  | > 10 nM |  | > 300 nM |  | 
11 | CSc1cc(Cl)[nH]c(=O)c1CNC(=O)c1cc(Cl)c2c(c1C)O[C@@](C)([C@H]1CC[C@H](N(C)C)CC1)O2 [Example 3, (R)-7-chloro-N-((6-chloro-4-(methylthio)-2-oxo-1,2-dihydropyridin-3-yl)methyl)-2-(trans-4-(dimethylamino)cyclohexyl)-2,4-dimethylbenzo[d][1,3]dioxole-5-carboxamide] | 29 nM | 2.4 nM | 0.37 nM |  |  | 3.7 ×10⁻⁶ cm/s | 1.2
12 | CSc1cc(C)[nH]c(=O)c1CNC(=O)c1cc(Cl)c2c(c1C)O[C@@](C)([C@H]1CC[C@H](N(C)C)CC1)O2 [Example 4] | 4 nM | 0.51 nM | 0.038 nM |  |  | 0.62 ×10⁻⁶ cm/s | 2.3
